# Assay results taken from patent US20130109581A1, “POSITIVELY CHARGED SPECIES AS BINDING REAGENTS IN THE SEPARATION OF PROTEIN AGGREGATES FROM MONOMERS” (priority 2009, published 2013).
# Entries after “also recorded” stand apart in the source; their conditions may differ. Read-outs that look alike come from different tables or passages of the source. Where a SMILES comes first, the peptide text is derived from it. [ ]: non-standard residue; d: D form. Ahx = NCCCCCC(=O)O
# Key:
# Aβ42 ASPD = target: T1, Aβ42 ASPD (Homo sapiens, UniProt P05067); experiment: Misfolded Protein Assay, LoD and capture in CSF: ASPD; type: binding
# T1 construct: The Ab42 aggregates were prepared as previously described
# T1 sequence (P05067 672-713 limits assumed): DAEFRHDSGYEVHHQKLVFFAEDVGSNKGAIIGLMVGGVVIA
# Experimental: (§1) The Ab42 aggregates were prepared as previously described: fibrils were prepared per Stine et al (JBC 2003, 278, p11612), globulomers were prepared per Barghorn et al (J Neurology 2005 95 p834), ADDLs were prepared per Lambert et al (PNAS 1998, 95 p6448), and ASPDs were prepared per Noguchi et al (JBC 2009 284 p32895). Normal CSF was pooled from clinically characterized non-demented patient CSF samples. AD CSF was pooled from clinically-characterized AD patient samples. Alzheimer's Disease Brain Homogenate (ADBH) was prepared by sonication of clinically diagnosed AD patient brain samples in 0.2M.sucrose (1:10 w/v).
# (§2) For the capture assay (Misfolded Protein Assay), aliquots of the beads (30 ul) were added to wells of a 96 well plate, followed by 125 ul of sample in 80:20 CSF:TBSTT. The plate was sealed and incubated for 1 h at 37 C with shaking. The plate was washed with TBST and the residual buffer removed. A denaturing solution (0.1 N NaOH) was added to each well and the plate heated to 80 C. for 30 min with shaking. After cooling the plate to RT, a neutralizing buffer (0.12 M NaH2PO3-0.4% TW20,) was added and the plate shaken briefly at RT. The assay was analyzed using the triplex Mesoscale Discovery ELISA kit for Aβ. The Aβ in the samples eluted from the beads were detected per the manufacturer's protocol.
# (§3) For the Limit of Detection (LoD) studies, serial dilutions of each aggregate were spiked into CSF and were assayed per the protocol described above. The LoD was defined as 2× over background levels.
# (§4) This pattern minors the capture selectivity observed when these species are tested with 3 ul of PSR1 beads and 1 ng/mL of aggregate.
# Aβ42 ADDL = Aβ42 ADDL (Homo sapiens, UniProt P05067); experiment: Misfolded Protein Assay, LoD and capture in CSF: ADDL; type: binding
# Sequence of Aβ42 ADDL (P05067 672-713 limits assumed): as above
# Experimental: as §1, §2, §3, §4
# Aβ42 Fibrils = target: T2, Aβ42 Fibrils (Homo sapiens, UniProt P05067); experiment: Misfolded Protein Assay, LoD and capture in CSF: fibrils; type: binding
# T2 construct: The Ab42 aggregates were prepared as previously described
# T2 sequence (P05067 672-713 limits assumed): as above
# Experimental: as §1, §2, §3, §4
# Aβ42 Globulomer = target: T3, Aβ42 Globulomer (Homo sapiens, UniProt P05067); experiment: Misfolded Protein Assay, LoD and capture in CSF: globulomer; type: binding
# T3 construct: beta amyloid (1-42) was monomerized with incubation in hexafluoroisopropanol
# T3 sequence (P05067 672-713 limits assumed): as above
# Experimental: as §1, §2, §3, §4
# [1] = system: Alzheimer's Disease Brain Homogenate (ADBH) Aβ aggregates; experiment: Misfolded Protein Assay, LoD in CSF: ADBH; type: binding, human; conditions: spiked into CSF; LoD = 2× over background
# Experimental: as §1
# as §2, with “protocol. […]” for “protocol.”
# [2] = target: T4, Aβ40 aggregates in AD CSF (Homo sapiens, UniProt P05067); experiment: Discrimination between AD and normal CSF; type: binding; conditions: FIG. 39
# T4 construct: from tissue; host or cells: pooled cerebrospinal fluid (normal or AD)
# T4 sequence (P05067 672-711 limits assumed): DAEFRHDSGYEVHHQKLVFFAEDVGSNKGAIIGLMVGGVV
# Experimental: as §1, §2
# For discriminating between AD and normal CSF, pooled normal CSF or pooled Alzheimer's Disease patient CSF, were assayed per the protocol described above.
# normal CSF Aβ40 = target: T5, normal CSF Aβ40 (Homo sapiens, UniProt P05067); experiment: NMPA with detergent washing: background from CSF, Abeta40; type: binding; conditions: 1% detergent wash after PSR1 pulldown; FIG. 35
# T5 construct: from tissue; host or cells: pooled cerebrospinal fluid (normal or AD)
# T5 sequence (P05067 672-711 limits assumed): as above
# Experimental: Second, two neutral detergents, polyethylene glycol sorbitan monolaurate (available as TWEEN 20 from Sigma-Aldrich, St. Louis, Mo.) and n-tetradecyl-N,N-dimethyl-3-ammonio-1-propanesulfonate (available as ZWITTERGENT 3-14 from EMI) Chemicals, Gibbstown, N.J.) were used to treat the globulomer-spiked CSF samples that had been contacted with PSR1 beads. For each assay, a mixture of 30 μl of PSR1 beads (coated at about 7-12 nmol PSR1 ligand/mg DYNAL beads, which were used in this example and in the following examples unless otherwise stated) and 70 μl of 1×TBSTT was immediately pipetted into each well on the pulldown plate. The liquid was removed on a magnetic separator. Fifty micro liters of 5×TBSTT was added to each well. The beads were suspended by briefly shaking at 750 rpm. Next […] of TBSTT or CSF sample without globulomer was added to each well. The pulldown plate was sealed and incubated at 37° C. for 1 hour with shaking at 500 rpm. After incubation, the beads were washed 8 times with TBST on the plate washer. After the plate wash, residual TBST buffer was removed from the beads on the magnetic separator. […]
# (§5) A summary of the assay results and calculated signal/noise is shown below in Table 17.
# normal CSF Aβ42 = target: T6, normal CSF Aβ42 (Homo sapiens, UniProt P05067); experiment: NMPA with detergent washing: background from unspiked CSF, Abeta42; type: binding; conditions: for detection of normal CSF Aβ42 (background): 1% detergent wash after PSR1 pulldown, FIG. 35
# T6 construct: reduced the detection of normal CSF Aβ42 to the background levels; from tissue; host or cells: pooled normal cerebrospinal fluid
# T6 sequence (P05067 672-713 limits assumed): as the sequence (P05067 672-713 limits assumed) above
# Experimental: Second, two neutral detergents, polyethylene glycol sorbitan monolaurate (available as TWEEN 20 from Sigma-Aldrich, St. Louis, Mo.) and n-tetradecyl-N,N-dimethyl-3-ammonio-1-propanesulfonate (available as ZWITTERGENT 3-14 from EMI) Chemicals, Gibbstown, N.J.) were used to treat the globulomer-spiked CSF samples that had been contacted with PSR1 beads. For each assay, a mixture of 30 μl of PSR1 beads (coated at about 7-12 nmol PSR1 ligand/mg DYNAL beads, which were used in this example and in the following examples unless otherwise stated) and 70 μl of 1×TBSTT was immediately pipetted into each well on the pulldown plate. The liquid was removed on a magnetic separator. Fifty micro liters of 5×TBSTT was added to each well. The beads were suspended by briefly shaking at 750 rpm. Next […] of TBSTT or CSF sample without globulomer was added to each well. The pulldown plate was sealed and incubated at 37° C. for 1 hour with shaking at 500 rpm. After incubation, the beads were washed 8 times with TBST on the plate washer. After the plate wash, residual TBST buffer was removed from the beads on the magnetic separator. The beads were then incubated with 100 μl of either TBS, 1% Tween20 or 1% Zwittergent 3-14 for 30 minutes at room temperature at 750 rpm, (followed by an additional 8 washes with TBST on the plate washer. After removing residual TBST on the magnetic separator, 20 μl of denaturing solution, typically 0.1-0.15 N NaOH, was added to the beads. The plate was covered with an aluminum foil plate sealer and incubated at 80° C. for 30 minutes with shaking at 750 rpm. After incubation, the plate was cooled to room temperature and twenty micro liters of neutralizing solution, typically 0.12-0.18 M NaH2PO4+0.4% Tween20) was added into each well and the plate was incubated at room temperature for 5 minutes with shaking at 750 rpm. […] MSD Abeta Triplex Assay was preformed according to the manufacturer's instructions.
# as §5
# Abeta 42 globulomer = Abeta 42 globulomer (Homo sapiens, UniProt P05067); experiment: NMPA with detergent washing after PSR1 pulldown: globulomer detection; type: binding
# Sequence of Abeta 42 globulomer (P05067 672-713 limits assumed): as above
# [3] = 3 ul of beads and 1 ng/mL of aggregate
# [4] = spiked into CSF, LoD = 2× over background
# [5] = CSF, PSR1 beads treated with detergent post capture
# [6] = pulldown CSF, PSR1 beads washed with 1% detergent
molecule,measurement,setting,value
"CC(=O)NC(Cc1ccccc1)C(=O)NC(CCCCN)C(=O)NC(Cc1ccccc1)C(=O)NC(CCCCN)C(=O)NC(CCCCN)C(=O)NC(CCCCN)C(=O)NCCCCCC(=O)NCCCCCC(=O)NC(CS)C(N)=O (stereo not drawn) [Ac-FKFKKK, Ac-FKFKKK-Ahx-Ahx-Cys-NH2] (Ac-FKFKKK[Ahx][Ahx]C-NH2; configuration not given here)",capture of ASPD,Aβ42 ASPD; [3],1321
same,LoD,Aβ42 ASPD; [4],300 pg/mL
same,capture of ADDL,Aβ42 ADDL; [3],1241
same,LoD,Aβ42 ADDL; [4],300 pg/mL
same,capture of Fibril,Aβ42 Fibrils; [3],4138
same,LoD,Aβ42 Fibrils; [4],100 pg/mL
same,capture of Globulomer,Aβ42 Globulomer; [3],3409
same,LoD,Aβ42 Globulomer; [4],75 to 120 pg/mL
same,LoD,[1],<10 pg/mL
same,Aβ40 signal in pooled AD CSF relative to normal pool,[2],higher Aβ40 signal in positive pooled AD CSF relative to unmatched normal pool; also recorded: largest change in signal
Polyethylene glycol sorbitan monolaurate [TW20],detection of normal CSF Aβ40 (background),normal CSF Aβ40,reduced the detection of normal CSF Aβ40 significantly
same,detection of normal CSF Aβ42 (background),normal CSF Aβ42,reduced the detection of normal CSF Aβ42 to the background levels observed when PSR1 is incubated with TBSTT buffer alone
same,LoD of globulomer (Cal),Abeta 42 globulomer,2.52 pg/mL
same,"LoD of globulomer, RLU (S/N = 2)",Abeta 42 globulomer,211 RLU
same,S/N at 25.3 pg/mL globulomer,Abeta 42 globulomer,11.0
same,signal/noise of globulomer detection,Abeta 42 globulomer,improved the signal/noise of globulomer detection
"n-Tetradecyl-N,N-dimethyl-3-ammonio-1-propanesulfonate [ZW3-14]",detection of normal CSF Aβ40 (background),normal CSF Aβ40,reduced the detection of normal CSF Aβ40 significantly
same,detection of normal CSF Aβ42 (background),normal CSF Aβ42,reduced the detection of normal CSF Aβ42 to the background levels observed when PSR1 is incubated with TBSTT buffer alone
same,"Abeta 42 RLU, 0 ng/mL Abeta 42 globulomer, Average",normal CSF Aβ42; [5],110.0 RLU
same,signal/noise of globulomer detection,Abeta 42 globulomer,improved the signal/noise of globulomer detection; also recorded: improved the signal/noise ratio for Abeta 42 globulomer detection more significantly
same,S/N Abeta 42 globulomer-spiked/unspiked,Abeta 42 globulomer; 0.5 ng/mL vs 0 ng/mL globulomer,7.7
same,S/N Abeta 42 globulomer-spiked/Abeta 40,Abeta 42 globulomer; Abeta 42 RLU at 0.5 ng/mL over average Abeta 40 RLU,2.2
same,"Abeta 42 RLU, 0.5 ng/mL Abeta 42 globulomer, Average",Abeta 42 globulomer; [5],842.0 RLU
same,LoD of globulomer (Cal),Abeta 42 globulomer; [6],2.33 pg/mL
same,"LoD of globulomer, RLU (S/N = 2)",Abeta 42 globulomer; [6],199 RLU
same,S/N at 25.3 pg/mL globulomer,Abeta 42 globulomer; [6],10.3
